Assay results reported in ChEMBL document CHEMBL3885861, “Open TG-GATES”.

Organism: Rattus norvegicus
Assay: Open TG-GATES - Regimen: Single
Assay type: toxicity, organism-based, Sprague-Dawley
Design: regimen Single, gender Male, age 6 weeks
Settings: in vivo, ip, 40 mg/kg, route intraperitoneal injection, dose level Low; for APTT / Bas / Eos / Fbg / Hb / Ht / Lym / MCH / MCHC / MCV / Mono / Neu / PT / Plat / RBC / Ret / WBC: tissue Blood; for KIDNEY_L / KIDNEY_R / KIDNEY_TOTAL: tissue Kidney; for LIVER: tissue Liver; for A/G / ALP / ALT / AST / BUN / CRE / Ca / Cl / DBIL / GLC / IP / K / LDH / Na / PL / RALB / TBIL / TC / TG / TP / gamma-GTP: tissue Plasma

`CC(C)=CC(=O)C=C(C)C` [PHORONE] showed a TERMINAL_BW (3 h) of 219.9 g, an APTT (3 h) of 16.7 s and a Bas (3 h) of 0%. It also gave an Eos (3 h) of 0.8%, a Fbg (3 h) of 211 mg/dL and a Hb (3 h) of 13.1 g/dL. The Ht (3 h) was 39.1%, the Lym (3 h) was 69.8% and the MCH (3 h) was 21.6 pg. For the same compound, the MCHC (3 h) was 33.5%, the MCV (3 h) was 64.4 fL and the Mono (3 h) was 8.4%. It also gave a Neu (3 h) of 21.2%, a PT (3 h) of 12.2 s and a Plat (3 h) of 112.1 x10_4/uL. It also gave an RBC (3 h) of 608 x10_4/ul, a Ret (3 h) of 9.2% and a WBC (3 h) of 105.8 x10_2/uL. The KIDNEY_L (3 h) was 1 g, the KIDNEY_R (3 h) was 1 g and the KIDNEY_TOTAL (3 h) was 2 g. It also gave an LIVER (3 h) of 10.5 g, an A/G (3 h) of 2.3 and an ALP (3 h) of 735.6 IU/L. It also gave an ALT (3 h) of 36.4 IU/L, an AST (3 h) of 78.6 IU/L and a BUN (3 h) of 14.8 mg/dL. The CRE (3 h) was 0.6 mg/dL, the Ca (3 h) was 10.6 mg/dL and the Cl (3 h) was 106 meq/L. It also gave a DBIL (3 h) of 0.034 mg/dL, a GLC (3 h) of 193.6 mg/dL and an IP (3 h) of 10.3 mg/dL. It also gave a K (3 h) of 4.8 meq/L, an LDH (3 h) of 83.8 IU/L and a Na (3 h) of 139 meq/L. It also gave a PL (3 h) of 133.6 mg/dL, an RALB (3 h) of 3.6 g/dL and a TBIL (3 h) of 0.4 mg/dL. For the same compound, the TC (3 h) was 75.4 mg/dL, the TG (3 h) was 46 mg/dL and the TP (3 h) was 5.2 g/dL. For the same compound, the gamma-GTP (3 h) was 2.4 IU/L, the TERMINAL_BW (6 h) was 219.1 g and the APTT (6 h) was 17.2 s. The Bas (6 h) was 0%, the Eos (6 h) was 0.6% and the Fbg (6 h) was 216.8 mg/dL. It also gave a Hb (6 h) of 13.5 g/dL, a Ht (6 h) of 40.3% and a Lym (6 h) of 66.2%. For the same compound, the MCH (6 h) was 21.6 pg, the MCHC (6 h) was 33.4% and the MCV (6 h) was 64.8 fL. It also gave a Mono (6 h) of 6.6%, a Neu (6 h) of 26.8% and a PT (6 h) of 12.3 s. It also gave a Plat (6 h) of 114.9 x10_4/uL, an RBC (6 h) of 621.6 x10_4/ul and a Ret (6 h) of 9%. It also gave a WBC (6 h) of 90 x10_2/uL, a KIDNEY_L (6 h) of 1 g and a KIDNEY_R (6 h) of 1 g. For the same compound, the KIDNEY_TOTAL (6 h) was 2.1 g, the LIVER (6 h) was 9.8 g and the A/G (6 h) was 2.2. The ALP (6 h) was 814.6 IU/L, the ALT (6 h) was 36.2 IU/L and the AST (6 h) was 70.8 IU/L. The BUN (6 h) was 13.8 mg/dL, the CRE (6 h) was 0.5 mg/dL and the Ca (6 h) was 10.8 mg/dL. For the same compound, the Cl (6 h) was 105 meq/L, the DBIL (6 h) was 0.048 mg/dL and the GLC (6 h) was 193.4 mg/dL. For the same compound, the IP (6 h) was 10.1 mg/dL, the K (6 h) was 4.9 meq/L and the LDH (6 h) was 76 IU/L. The Na (6 h) was 138.2 meq/L, the PL (6 h) was 126.4 mg/dL and the RALB (6 h) was 3.6 g/dL. It also gave a TBIL (6 h) of 0.5 mg/dL, a TC (6 h) of 72.2 mg/dL and a TG (6 h) of 36.6 mg/dL. The TP (6 h) was 5.3 g/dL, the gamma-GTP (6 h) was 1.6 IU/L and the TERMINAL_BW (9 h) was 220.4 g. The APTT (9 h) was 17.1 s, the Bas (9 h) was 0% and the Eos (9 h) was 1%. For the same compound, the Fbg (9 h) was 246.6 mg/dL, the Hb (9 h) was 13.2 g/dL and the Ht (9 h) was 39.8%. The Lym (9 h) was 63.8%, the MCH (9 h) was 21.8 pg and the MCHC (9 h) was 33.3%. It also gave an MCV (9 h) of 65.5 fL, a Mono (9 h) of 8.6% and a Neu (9 h) of 26.6%. It also gave a PT (9 h) of 12.1 s, a Plat (9 h) of 115.4 x10_4/uL and an RBC (9 h) of 609 x10_4/ul. For the same compound, the Ret (9 h) was 9.4%, the WBC (9 h) was 96.2 x10_2/uL and the KIDNEY_L (9 h) was 1 g. For the same compound, the KIDNEY_R (9 h) was 1 g, the KIDNEY_TOTAL (9 h) was 2 g and the LIVER (9 h) was 9.5 g. For the same compound, the A/G (9 h) was 2, the ALP (9 h) was 839.8 IU/L and the ALT (9 h) was 33.2 IU/L. The AST (9 h) was 69 IU/L, the BUN (9 h) was 13.8 mg/dL and the CRE (9 h) was 0.5 mg/dL. The Ca (9 h) was 10.8 mg/dL, the Cl (9 h) was 106.6 meq/L and the DBIL (9 h) was 0.04 mg/dL. For the same compound, the GLC (9 h) was 204.2 mg/dL, the IP (9 h) was 10 mg/dL and the K (9 h) was 4.7 meq/L. It also gave an LDH (9 h) of 91.4 IU/L, a Na (9 h) of 138.8 meq/L and a PL (9 h) of 131.8 mg/dL. The RALB (9 h) was 3.6 g/dL, the TBIL (9 h) was 0.4 mg/dL and the TC (9 h) was 77.6 mg/dL. It also gave a TG (9 h) of 54 mg/dL, a TP (9 h) of 5.4 g/dL and a gamma-GTP (9 h) of 1.8 IU/L. For the same compound, the TERMINAL_BW (24 h) was 231.5 g, the APTT (24 h) was 16.9 s and the Bas (24 h) was 0%. For the same compound, the Eos (24 h) was 0.8%, the Fbg (24 h) was 231.2 mg/dL and the Hb (24 h) was 12.9 g/dL. For the same compound, the Ht (24 h) was 38.5%, the Lym (24 h) was 77.8% and the MCH (24 h) was 22 pg. The MCHC (24 h) was 33.6%, the MCV (24 h) was 65.4 fL and the Mono (24 h) was 5.6%. It also gave a Neu (24 h) of 16%, a PT (24 h) of 11.5 s and a Plat (24 h) of 113 x10_4/uL. The RBC (24 h) was 589.8 x10_4/ul, the Ret (24 h) was 8.8% and the WBC (24 h) was 87.7 x10_2/uL. For the same compound, the KIDNEY_L (24 h) was 1 g, the KIDNEY_R (24 h) was 1 g and the KIDNEY_TOTAL (24 h) was 2 g. The LIVER (24 h) was 11.8 g, the A/G (24 h) was 2 and the ALP (24 h) was 774.8 IU/L. The ALT (24 h) was 34 IU/L, the AST (24 h) was 65 IU/L and the BUN (24 h) was 19.2 mg/dL. The CRE (24 h) was 0.5 mg/dL, the Ca (24 h) was 11 mg/dL and the Cl (24 h) was 104.4 meq/L. For the same compound, the DBIL (24 h) was 0.028 mg/dL, the GLC (24 h) was 197.2 mg/dL and the IP (24 h) was 8.3 mg/dL. The K (24 h) was 4.7 meq/L, the LDH (24 h) was 87.6 IU/L and the Na (24 h) was 139 meq/L. It also gave a PL (24 h) of 156 mg/dL, an RALB (24 h) of 3.8 g/dL and a TBIL (24 h) of 0.4 mg/dL. The TC (24 h) was 81.8 mg/dL, the TG (24 h) was 118.2 mg/dL and the TP (24 h) was 5.7 g/dL. For the same compound, the gamma-GTP (24 h) was 0.6 IU/L.
